# According to US20240199546A1, “INHIBITORS OF SOLUTE CARRIER FAMILY 6A MEMBER 19 (SLC6A19) AND METHODS OF USE THEREOF” (Maze Therapeutics, Inc., priority 2022, published 2024):
# Biological target: T1, human SLC6A19 and TMEM27 (Homo sapiens, UniProt Q695T7)
# T1 construct: expressed in transfected cells
# T1 sequence (Q695T7 1-634): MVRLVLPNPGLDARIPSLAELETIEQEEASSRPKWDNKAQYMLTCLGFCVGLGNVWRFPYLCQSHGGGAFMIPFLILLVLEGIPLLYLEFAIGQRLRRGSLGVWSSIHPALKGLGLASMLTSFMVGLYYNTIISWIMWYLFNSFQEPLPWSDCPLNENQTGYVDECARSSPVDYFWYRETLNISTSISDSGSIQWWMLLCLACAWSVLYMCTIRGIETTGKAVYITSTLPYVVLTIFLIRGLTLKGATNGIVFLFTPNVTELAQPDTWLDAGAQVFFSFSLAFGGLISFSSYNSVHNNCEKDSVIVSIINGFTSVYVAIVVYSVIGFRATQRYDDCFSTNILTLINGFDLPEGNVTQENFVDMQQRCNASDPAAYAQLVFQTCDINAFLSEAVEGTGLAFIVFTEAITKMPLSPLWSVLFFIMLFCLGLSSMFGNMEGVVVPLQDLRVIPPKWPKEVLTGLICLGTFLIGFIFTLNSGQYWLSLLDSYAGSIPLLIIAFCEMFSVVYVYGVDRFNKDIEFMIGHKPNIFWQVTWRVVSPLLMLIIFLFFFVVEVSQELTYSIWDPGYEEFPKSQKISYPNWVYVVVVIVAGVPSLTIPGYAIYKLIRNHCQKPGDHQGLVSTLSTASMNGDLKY
# T1 sequence (Q9HBJ8 15-222 partner): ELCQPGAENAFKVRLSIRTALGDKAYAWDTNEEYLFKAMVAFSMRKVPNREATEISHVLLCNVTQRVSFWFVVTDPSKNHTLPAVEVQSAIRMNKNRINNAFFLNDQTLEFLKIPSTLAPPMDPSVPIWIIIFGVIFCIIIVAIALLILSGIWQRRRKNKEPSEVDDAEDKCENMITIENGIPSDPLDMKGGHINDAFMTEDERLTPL
# Assay: Radiolabelled (3H) leucine uptake in CHO cells with doxycycline-inducible expression of human SLC6A19 and TMEM27 (Example B-1)
# Assay type: cell-based
# Conditions: CHO cells with doxycycline-inducible expression of human SLC6A19 and TMEM27, read-out: SLC6A19_Radioligand Uptake Assay IC50
# Procedure, shortened: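 CHO cells were induced with doxycycline for 18 h at 37 °C, washed in HBSS, then exposed to compounds for 1 h: 8-point, 3-fold dilutions in duplicate, 0.5% DMSO final. Uptake measured by scintillation counting after 2 h shaking. Activity normalized with positive control as 0% and DMSO as 100%.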
row,Compound,IC50 [nM]
1,"Cc1cc(COc2cc3[nH]c(CNC(=O)C(C)(C)C#N)cc3cc2Cl)on1 [Compound 485, N-((5-chloro-6-((3-methylisoxazol-5-yl)methoxy)-1H-indol-2-yl)methyl)-2-cyano-2-methylpropanamide]",578
2,"O=C(NCc1cc2c(F)cc(OCc3ccon3)cc2[nH]1)N1CCC1 [Compound 423, N-((4-fluoro-6-(isoxazol-3-ylmethoxy)-1H-indol-2-yl)methyl)azetidine-1-carboxamide]",198
3,"CC1(C(=O)NCc2cc3cc(F)c(OCc4ccno4)cc3[nH]2)CC1 [Compound 328, N-((5-fluoro-6-(isoxazol-5-ylmethoxy)-1H-indol-2-yl)methyl)-1-methylcyclopropane-1-carboxamide]",147
4,"C[C@@H]1CCCN1C(=O)NCc1cc2cc(F)c(OCc3ccon3)cc2[nH]1 [Compound 383, (R)-N-((5-fluoro-6-(isoxazol-3-ylmethoxy)-1H-indol-2-yl)methyl)-2-methylpyrrolidine-1-carboxamide]",178
5,"Cc1cc(COc2cc3[nH]c(CNC(=O)[C@@H]4CCC[C@@H]4O)cc3cc2Cl)on1 (racemic) [Compound 573, (1R,2S)-N-((5-chloro-6-((3-methylisoxazol-5-yl)methoxy)-1H-indol-2-yl)methyl)-2-hydroxycyclopentane-1-carboxamide and (1S,2R)-N-((5-chloro-6-((3-methylisoxazol-5-yl)methoxy)-1H-indol-2-yl)methyl)-2-hydroxycyclopentane-1-carboxamide]",1390
6,"CC1(C(=O)NCc2cc3ccc(OCC45CC(C4)C5)cc3[nH]2)CC1 [Compound 189, N-((6-(bicyclo[1.1.1]pentan-1-ylmethoxy)-1H-indol-2-yl)methyl)-1-methylcyclopropane-1-carboxamide]",9830
7,"CC1(C(=O)NCc2cc3cc(Cl)c(OCc4cccnn4)cc3[nH]2)CC1 [Compound 334, N-((5-chloro-6-(pyridazin-3-ylmethoxy)-1H-indol-2-yl)methyl)-1-methylcyclopropane-1-carboxamide]",519
8,"CC(=O)NCc1cc2cc(Cl)c(OCC3CC3(F)F)cc2[nH]1 (centres unmarked) [Compound 458, N-((5-chloro-6-((2,2-difluorocyclopropyl)methoxy)-1H-indol-2-yl)methyl)acetamide]",7670
9,"Cc1cc(COc2cc3[nH]c(CNC(=O)CC4(C)COC4)cc3cc2Cl)on1 [Compound 288, N-((5-chloro-6-((3-methylisoxazol-5-yl)methoxy)-1H-indol-2-yl)methyl)-2-(3-methyloxetan-3-yl)acetamide]",3260
10,"COCC(=O)NCc1cc2cc(F)c(OCc3cc(C)no3)cc2[nH]1 [Compound 263, N-((5-fluoro-6-((3-methylisoxazol-5-yl)methoxy)-1H-indol-2-yl)methyl)-2-methoxyacetamide]",174
11,"Cc1cc(COc2cc3[nH]c(CNC(=O)[C@H]4C[C@@H](O)C4)cc3cc2Cl)on1 [Compound 253, (1S,3S)-N-((5-chloro-6-((3-methylisoxazol-5-yl)methoxy)-1H-indol-2-yl)methyl)-3-hydroxycyclobutane-1-carboxamide]",606
12,"Cc1cc(COc2cc3[nH]c(CNC(=O)C45COC(C4)C5)cc3cc2Cl)on1 [Compound 298, N-((5-chloro-6-((3-methylisoxazol-5-yl)methoxy)-1H-indol-2-yl)methyl)-2-oxabicyclo[2.1.1]hexane-4-carboxamide]",921
13,"O=C(NCc1cc2cc(Cl)c(OCc3cscn3)cc2[nH]1)N1CCC1CO (racemic) [Compound 365, (S)-N-((5-chloro-6-(thiazol-4-ylmethoxy)-1H-indol-2-yl)methyl)-2-(hydroxymethyl)azetidine-1-carboxamide and (R)-N-((5-chloro-6-(thiazol-4-ylmethoxy)-1H-indol-2-yl)methyl)-2-(hydroxymethyl)azetidine-1-carboxamide]",991
14,"CC(=O)NCc1cc2cc(Cl)c(OCc3ccon3)cc2[nH]1 [Compound 143, N-((5-chloro-6-(isoxazol-3-ylmethoxy)-1H-indol-2-yl)methyl)acetamide]",182
